Assay results: paper PMC5510653 (ACS chemical neuroscience, 2016)

Experiments:
[1] = tested on: MPTP-treated parkinsonian monkeys; assay: Motor behavior in MPTP-treated parkinsonian monkeys; assay type: in vivo, Rhesus monkeys
[2] = tested on: electrical cardiac activities; assay: Effects of ML218 on cardiac function; assay type: in vivo, Rhesus monkeys; conditions: ketamine sedation
[3] = tested on: MPTP-treated parkinsonian monkey; assay: ECoG recordings and scoring of state of arousal and movements; assay type: in vivo, Rhesus monkey; conditions: ML218 3 mg/kg s.c., one monkey
[4] = tested on: MDCK-MDR1 (MDCK-Pgp) cells
[5] = rhesus monkey
[6] = rhesus monkey, in vivo, sc, 10 mg/kg
[7] = tested on: haloperidol-induced catalepsy; conditions: haloperidol-induced catalepsy model in rats ref 38; cited from earlier work
TH immunolabeling = assay: Post-mortem TH immunoperoxidase staining of striatum; assay type: in vivo, Rhesus monkeys; conditions: 7 MPTP-treated animals vs mean of 3 non-treated monkeys, mean ± SEM
slow-wave sleep = conditions: mice ref 39, 40; cited from earlier work

Compound: N[C@@H](Cc1ccc(O)c(O)c1)C(=O)O [L-DOPA, reference compound]
- antiparkinsonian effects (number of movements, activity counts) ([1]; L-DOPA 5, 10, 15, 20 mg/kg i.m. in combination with benserazide): strong, dose-dependent antiparkinsonian effects

Compound: CC(C)(C)CCN1C[C@@H]2C(CNC(=O)c3cc(Cl)cc(Cl)c3)[C@@H]2C1 (stereo partly shown) [ML218]
- chronotropic effect (R-R interval) ([2]; 30 mg/kg s.c., ECG two hours after injection, 3 animals): minor negative chronotropic effects
- effects on the other ECG parameters studied (PR, RT intervals) ([2]; 10 and 30 mg/kg s.c.): no consistent effects
- effect of adding ML218 on L-DOPA-mediated responses ([1]; ML218 3 mg/kg s.c. 60 min before L-DOPA 10 mg/kg i.m. plus 2.5 mg/kg benserazide): did not alter the L-DOPA-mediated responses
- activity counts compared to baseline ([1]; ML218 10 mg/kg s.c., p=0.002): reduced
- number of movements compared to baseline ([1]; ML218 10 mg/kg s.c., p=0.006): reduced
- antiparkinsonian effects (number of movements, activity counts) ([1]; ML218 1, 10 and 30 mg/kg s.c., observed from 1 hour after injection): no antiparkinsonian effects
- mean number of movements per 5 minute of observation ([3]; 2 hours of observation, vehicle 51.07 ± 6.42, p=0.016): 25.39 ± 4.52
- sleep ratio ([3]; within 120 minutes, vehicle 0.09 ± 0.06, p=0.008): 0.54 ± 0.06
- Papp AB [4]: 2.6e^− 6 cm/sec
- Fu (fraction of unbound compound in plasma) [5]: 0.09
- CSF Tmax [6]: 1 to 2 h
- anti-cataleptic properties [7]: anti-cataleptic properties

Compound: CN1CC=C(c2ccccc2)CC1 [MPTP]
- reduction of TH immunolabeling in the caudate (TH immunolabeling): 89 ± 3%
- reduction of TH immunolabeling in the post-commissural putamen (TH immunolabeling): 87 ± 3%

Compound: C[C@@H](NC(=O)Cc1ccc(C2CC2)cc1)c1ccc(OCC(F)(F)F)cn1 [TTA-A2]
- effect on slow-wave sleep (slow-wave sleep): promotes slow-wave sleep
